Source: patent US9006442B2, “Cannabinoid receptor modulators” (Lupin Limited, priority 2011, dated 2015)

Key:
[1] = molecular target: hCB2 (Homo sapiens, UniProt P34972); assay: cAMP determination in functional hCB2-CHO stable cells (HTRF); type: cell-based
[2] = test system: rats; assay: FCA-induced inflammatory allodynia, paw withdrawal threshold, von Frey filaments; type: in vivo; conditions: mechanical allodynia 7 days after FCA injection, dose 10 mg/kg
Description: FCA (Freund's Complete Adjuvant)—Induced Inflammatory Allodynia:
An emulsion of Freund's Complete Adjuvant (FCA), containing heat killed Mycobacterium tuberculosis (4 mg/ml) in incomplete Freund's adjuvant and saline (1:1) at a final concentration of 2 mg/ml, when injected (150 μl) into the plantar region of the paw of rats induces an inflammatory pain. Mechanical allodynia (7 days after injection) was assessed by measuring hind paw withdrawal thresholds with von Frey filaments. The 50% paw withdrawal threshold was determined using up and down method of Dixon and as per the Chaplan method.

[3] = test system: rats; assay: Chronic constriction injury (CCI)-induced neuropathic pain (Bennett's model), mechanical allodynia, von Frey filaments; type: in vivo; conditions: CCI of sciatic nerve, mechanical allodynia after 10-15 days, dose 10 mg/kg
Description: Chronic Constriction Injury (CCI)—Induced Neuropathic Pain (Bennett's Model):
Chronic constriction injury (CCI) of sciatic nerve in rats induces mechanical allodynia in this Bennet's neuropathic pain model. Rats were anesthetized using ketamine/xylazine (50/5 mg/kg, i.p.) and the left sciatic nerve was exposed at mid thigh level through a small incision. Four loose ligatures of 4-0 chromic cat gut (Ethicon—Johnson & Johnson) at 1 mm space were placed around the sciatic nerve after the bifurcation of common sciatic nerve. After 10-15 days, mechanical allodynia was assessed by measuring hind paw withdrawal thresholds with von Frey filaments. The 50% paw withdrawal threshold was determined using up and down method of Dixon and as per the Chaplan method.

hCB2, sequence (P34972 whole entry): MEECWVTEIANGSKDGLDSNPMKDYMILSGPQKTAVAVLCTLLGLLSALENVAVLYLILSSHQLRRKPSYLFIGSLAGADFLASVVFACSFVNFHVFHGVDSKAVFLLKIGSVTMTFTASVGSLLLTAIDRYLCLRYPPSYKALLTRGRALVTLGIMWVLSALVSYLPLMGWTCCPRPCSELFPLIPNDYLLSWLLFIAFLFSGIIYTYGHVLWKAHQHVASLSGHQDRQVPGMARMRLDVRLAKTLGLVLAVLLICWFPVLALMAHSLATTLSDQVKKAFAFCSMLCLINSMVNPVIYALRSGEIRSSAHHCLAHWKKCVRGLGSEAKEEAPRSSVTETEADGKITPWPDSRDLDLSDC

Compound | EC50 [1] [nM] | % Improvement (MEAN ± S.E.M.) in Paw withdrawal Threshold, 1 h [2] [%] | % Improvement (MEAN ± S.E.M.) in Paw withdrawal Threshold, 2 h [2] [%] | % Improvement (MEAN ± S.E.M.) in Paw withdrawal Threshold, 1 h [3] [%] | % Improvement (MEAN ± S.E.M.) in Paw withdrawal Threshold, 2 h [3] [%]
Cc1cccc2c(Nc3cccc(Cl)c3)ncc(C(=O)N3CC4CC(C3)O4)c12 [Example-39, 6-Oxa-3-azabicyclo[3.1.1]heptan-3-yl(1-((3-chlorophenyl)amino)-5-methylisoquinolin-4-yl)methanone] | < 10 | 2.10 ± 1.87 | 10.22 ± 4.68 | 11.6 ± 12.8 | 0.7 ± 1.1
Cc1cccc2c(Nc3cccc(Cl)c3)ncc(C(=O)N3CCCCC3)c12 [Example-22, (1-((3-Chlorophenyl)amino)-5-methylisoquinolin-4-yl)(piperidin-1-yl)methanone] | < 10 | 17.7 ± 7.1 | 30.7 ± 8.8 | 61.8 ± 10.1 | 70.2 ± 9.5
